According to patent publication US20260076955A1, “JOINT CAVITY DRUG ADMINISTRATION METHOD, AND USE THEREOF” (TENNOR THERAPEUTICS (SUZHOU) LIMITED, priority 2023, published 2026):
Values after ≈ are worked out from the molar mass of the structure shown. Read-outs that look alike come from different tables or passages of the source. Marks after values point to notes of the source that are not given here.

What was measured:
[1] = test system: methicillin-sensitive Staphylococcus aureus (MSSA, ATCC6538 strain); experiment: Mouse metal implant joint infection model, colony counts from pin and femur; assay type: in vivo; conditions: for Femur Mean Log10 CFU / Log10 CFU Reduction vs. day 14 control, Femur / Log10 CFU Reduction vs. day 14 control, Pin / Pin Mean Log10 CFU: day 14
Excerpt: In this example, female mice aged 8-10 weeks were used and randomly grouped. Before the start of drug administration treatment, each mouse underwent a surgery involving the placement of a metal implant into the femoral-tibial joint and an intraarticular inoculation of methicillin-sensitive Staphylococcus aureus (MSSA, ATCC6538 strain) at the surgical site. Therapeutic agents were formulated as follows: • (1) compound of formula (I): when used as a therapeutic agent for intraarticular injection (IA), the compound was dissolved in 5% dextrose in water (D5W) and formulated to the required concentrations; when used as a therapeutic agent for intraperitoneal injection (IP), the compound was dissolved in a solvent system of ethanol/NaHCO3/6% Cremophor and formulated to the required concentrations; (2) vancomycin: the drug was dissolved in sterile water for injection (WFI) and formulated to the required concentration to obtain a therapeutic agent for intraarticular injection. [table] Samples were obtained from the surgical and inoculation sites of the mice, and colony counts are performed on the agar plates. The number of colonies converted to CFU/tissue by multiplying the number of colonies by the volume of the homogenate spotted and the dilution at which the colonies were counted (5-50 colonies/spot). The resulting value was expressed as log10 CFU/tissue and used to calculate the mean and standard deviations (the results are shown in Table 1).

[2] = test system: methicillin-resistant Staphylococcus aureus (MRSA, ATCC43300 strain); experiment: Rat PJI model: CFU count, scanning electron microscopy of prosthesis, H&E pathology of synovium; assay type: in vivo; conditions: for Tissue bacterial load in bone tissue / Tissue bacterial load in prosthesis / Tissue bacterial load in soft tissue: QD × 14 days, sample D 21
Excerpt: In this example, rats aged about 17 weeks were used. Before the start of drug administration treatment, each rat underwent an aseptic surgery to insert an artificial prosthesis into the knee joint, followed by an intraarticular inoculation of methicillin-resistant Staphylococcus aureus (MRSA, ATCC43300 strain) at the surgical site.

MRSA ATCC43300 strain = experiment: MIC (minimum inhibitory concentration) determination; assay type: cell-based; conditions: Staphylococcus aureus, read-out: MIC (minimum inhibitory concentration)
Staphylococcus aureus [3] = experiment: Biofilm bactericidal activity MBBC90; assay type: cell-based; conditions: against Staphylococcus aureus
[4] = test system: Staphylococcus epidermidis; experiment: Biofilm bactericidal activity MBBC90; assay type: cell-based; conditions: against Staphylococcus epidermidis
[5] = Pharmacokinetics after single intraarticular injection in beagle dogs (plasma and synovial fluid); assay type: in vivo; conditions: both sexes, dog, single intraarticular injection 3 mg/kg; for AUC(0-t) / Cmax / Tmax / half-life: mean
Experimental: In this example, an experiment with an animal model of male and female beagle dogs was used to evaluate the pharmacokinetic behavior after a single intraarticular injection of the compound of formula (I) in the knee. A total of 6 beagle dogs (3 males and 3 females) were used for this experiment. The experimental animals received a single intraarticular injection of 3 mg/kg of the compound of formula (I) in the left joint, and a single intraarticular injection of 0.1 mL/kg of the vehicle (injection solution of 5% dextrose in water) in the right joint. From the experimental animals, plasma samples were collected before administration (0 hour) and at 0.25 hour (15 minutes), 3 hours, 9 hours, 12 hours, 24 hours, 36 hours, 48 hours, and 72 hours after administration, and left knee synovial fluid samples were collected at 12 hours, 36 hours, and 60 hours after administration. The concentrations of the compound of formula (I) in the plasma and synovial fluid samples were determined using high-performance liquid chromatography-tandem mass spectrometry (LC-MS/MS).

[6] = test system: Staphylococcus epidermidis; experiment: MIC90; assay type: cell-based; conditions: against Staphylococcus epidermidis
Staphylococcus aureus [7] = experiment: MIC90; assay type: cell-based; conditions: against Staphylococcus aureus
[8] = 45 mg/kg, 25 μL IA, QD × 7 days
[9] = 5 mg/kg, 0.2 mL IP, BID × 7 days
[10] = 15 mg/kg, 0.2 mL IP, BID × 7 days
[11] = 15 mg/kg, 25 μL IA, QD × 7 days
[12] = 45 mg/kg, 0.2 mL IP, BID × 7 days
[13] = intraarticular administration, all IA dose groups (5-45 mg/kg)
[14] = group T2.5, 2.5 mg/kg intraarticular
[15] = group T5, 5 mg/kg intraarticular
[16] = group T10, 10 mg/kg intraarticular

CN[C@H](CC(C)C)C(=O)N[C@H]1C(=O)N[C@@H](CC(N)=O)C(=O)N[C@H]2C(=O)N[C@H]3C(=O)N[C@H](C(=O)N[C@H](C(=O)O)c4cc(O)cc(O)c4-c4cc3ccc4O)[C@H](O)c3ccc(c(Cl)c3)Oc3cc2cc(c3O[C@@H]2O[C@H](CO)[C@@H](O)[C@H](O)[C@H]2O[C@H]2C[C@](C)(N)[C@H](O)[C@H](C)O2)Oc2ccc(cc2Cl)[C@H]1O [Vancomycin, reference compound]
Femur Mean Log10 CFU [1, 8]: 6.08 Log10 CFU
Log10 CFU Reduction vs. day 14 control, Femur [1, 8]: −0.80 Log10 CFU
Log10 CFU Reduction vs. day 14 control, Pin [1, 8]: −1.28 Log10 CFU
Pin Mean Log10 CFU [1, 8]: 3.49 Log10 CFU
Tissue bacterial load in bone tissue ([2]; group Van, 44 mg/kg): 11733 ± 8583 CFU
Tissue bacterial load in prosthesis ([2]; group Van, 44 mg/kg): 1783 ± 1136 CFU
Tissue bacterial load in soft tissue ([2]; group Van, 44 mg/kg): 1050 ± 1174 CFU
pathological H&E staining of the synovial soft tissue (FIG. 2B) ([2]; vancomycin group, 44 mg/kg): a significant reduction in inflammatory cell infiltration in the synovium
scanning electron microscopy observation of prosthesis (FIG. 2A) ([2]; vancomycin treatment group, 44 mg/kg): a relatively large number of bacteria still remained
MIC (MRSA ATCC43300 strain): 0.5 µg/mL (≈ 0.345 µM)

CO[C@H]1/C=C/O[C@@]2(C)Oc3c(C)c(O)c4c(O)c(c(/C=N/N5CCC(N(C)C6([C@@H]7CCN(c8c(F)cn9c(=O)c(C(=O)O)cc(C%10CC%10)c9c8C)C7)CC6)CC5)c(O)c4c3C2=O)NC(=O)/C(C)=C\C=C\[C@H](C)[C@H](O)[C@@H](C)[C@@H](O)[C@@H](C)[C@H](OC(C)=O)[C@@H]1C [compound of formula (I)]
biofilm bactericidal activity MBBC90 (Staphylococcus aureus [3]): 2000 ng/mL
Femur Mean Log10 CFU [1, 9]: 6.51 Log10 CFU
Log10 CFU Reduction vs. day 14 control, Femur [1, 9]: −0.37 Log10 CFU
Log10 CFU Reduction vs. day 14 control, Pin [1, 9]: −0.51 Log10 CFU
Pin Mean Log10 CFU [1, 9]: 4.26 Log10 CFU
Femur Mean Log10 CFU ([1]; 5 mg/kg, 25 μL IA, QD × 7 days): 5.17 Log10 CFU
Log10 CFU Reduction vs. day 14 control, Femur ([1]; 5 mg/kg, 25 μL IA, QD × 7 days): −1.71 Log10 CFU
Log10 CFU Reduction vs. day 14 control, Pin ([1]; 5 mg/kg, 25 μL IA, QD × 7 days): −2.50 Log10 CFU
Pin Mean Log10 CFU ([1]; 5 mg/kg, 25 μL IA, QD × 7 days): 2.27 Log10 CFU
Femur Mean Log10 CFU [1, 10]: 5.33 Log10 CFU
Log10 CFU Reduction vs. day 14 control, Femur [1, 10]: −1.55 Log10 CFU
Log10 CFU Reduction vs. day 14 control, Pin [1, 10]: −2.25 Log10 CFU
Pin Mean Log10 CFU [1, 10]: 2.52 Log10 CFU
Femur Mean Log10 CFU [1, 11]: 3.76 Log10 CFU
Log10 CFU Reduction vs. day 14 control, Femur [1, 11]: −3.12 Log10 CFU
Log10 CFU Reduction vs. day 14 control, Pin [1, 11]: −2.54 Log10 CFU
Pin Mean Log10 CFU [1, 11]: 2.23 Log10 CFU
Femur Mean Log10 CFU [1, 12]: 3.42 Log10 CFU
Log10 CFU Reduction vs. day 14 control, Femur [1, 12]: −3.46 Log10 CFU
Log10 CFU Reduction vs. day 14 control, Pin [1, 12]: −2.72 Log10 CFU
Pin Mean Log10 CFU [1, 12]: 2.05 Log10 CFU
Femur Mean Log10 CFU [1, 8]: 3.46 Log10 CFU
Log10 CFU Reduction vs. day 14 control, Femur [1, 8]: −3.42 Log10 CFU
Log10 CFU Reduction vs. day 14 control, Pin [1, 8]: −2.72 Log10 CFU
Pin Mean Log10 CFU [1, 8]: 2.05 Log10 CFU
mean femur colony counts lower than those in the untreated control animals [1, 13]: 1.71-3.42 log10 CFU
mean pin colony counts lower than those in the untreated control animals [1, 13]: 2.5-2.72 logo CFU
biofilm bactericidal activity MBBC90 [4]: 250 ng/mL
Tissue bacterial load in bone tissue [2, 14]: 7083 ± 6280 CFU
Tissue bacterial load in prosthesis [2, 14]: 550 ± 207 CFU
Tissue bacterial load in soft tissue [2, 14]: 9717 ± 1387 CFU
Tissue bacterial load in bone tissue [2, 15]: 1383 ± 1068 CFU
Tissue bacterial load in prosthesis [2, 15]: 0 *** CFU
Tissue bacterial load in soft tissue [2, 15]: 5433 ± 3194 CFU
Tissue bacterial load in bone tissue [2, 16]: 2400 ± 1655 CFU
Tissue bacterial load in prosthesis [2, 16]: 0 *** CFU
Tissue bacterial load in soft tissue [2, 16]: 1517 ± 1011 CFU
pathological H&E staining of the synovial soft tissue (FIG. 2B) ([2]; high-dose group, 10 mg/kg): a significant reduction in inflammatory cell infiltration in the synovium
scanning electron microscopy observation of prosthesis (FIG. 2A) ([2]; high-dose group, 10 mg/kg): individual cocci embedded therein
scanning electron microscopy observation of prosthesis (FIG. 2A) ([2]; low-dose group, 2.5 mg/kg): the formation of a relatively large number of colonies could still be observed
scanning electron microscopy observation of prosthesis (FIG. 2A) ([2]; medium-dose group, 5 mg/kg): individual bacteria still present
MIC (MRSA ATCC43300 strain; MRSA ATCC43300 strain): 0.032 µg/mL
AUC(0-t) ([5]; plasma): 20.8 ± 7.15 µg·h/mL
Cmax ([5]; plasma): 736 ± 247 ng/mL
Tmax ([5]; plasma): 24 h
half-life ([5]; plasma): 12 h
AUC(0-t) ([5]; synovial fluid): 1000 ± 1050 µg·h/mL
Cmax ([5]; synovial fluid): 77400 ± 81900 ng/mL
Tmax ([5]; synovial fluid): 12 h
half-life ([5]; synovial fluid): 6.81 h
Kp ([5]; synovial fluid/plasma, read-out: AUC ratio = AUC0-last in synovial fluid/AUC0-last in plasma): 46.1
MIC90 [6]: 0.008 µg/mL
MIC90 (Staphylococcus aureus [7]): 0.015 µg/mL
